Measured values published in PubChem BioAssay (NCI).
Values joined by “and” are separate entries in the source; they are usually repeats but may differ in a detail not shown here. Equal values may be shown once.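 Cultured in 96-well plates, cells were exposed to test compound for 48 hours across five concentrations. Abbreviation: GI50, concentration required for 50% inhibition of growth. The concentration for full growth arrest is given as TGI.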

Tests used:
Assay in all cases: NCI anticancer screen, dose series, 48 h
HCT-116 colon = test system: HCT-116 colon
DU-145 prostate = test system: DU-145 prostate
SW-620 colon = test system: SW-620 colon
MDA-MB-231 breast = test system: MDA-MB-231 breast
OVCAR-3 ovarian = test system: OVCAR-3 ovarian
MDA-MB-435 = test system: MDA-MB-435
A549 NSCLC = test system: A549 NSCLC
MALME-3M melanoma = test system: MALME-3M melanoma
CAKI-1 renal = test system: CAKI-1 renal
SR leukemia = test system: SR leukemia

Row | SMILES | GI50 (HCT-116 colon) | TGI (HCT-116 colon) | GI50 (DU-145 prostate) | TGI (DU-145 prostate) | GI50 (SW-620 colon) | TGI (SW-620 colon) | GI50 (MDA-MB-231 breast) | TGI (MDA-MB-231 breast) | GI50 (OVCAR-3 ovarian) | TGI (OVCAR-3 ovarian) | GI50 (MDA-MB-435) | TGI (MDA-MB-435) | GI50 (A549 NSCLC) | TGI (A549 NSCLC) | GI50 (MALME-3M melanoma) | TGI (MALME-3M melanoma) | GI50 (CAKI-1 renal) | TGI (CAKI-1 renal) | TGI (SR leukemia) [µM] | GI50 (SR leukemia) [µM]
1 | C=C(C)[C@@H]1CCC2=C[C@@H](OC2=O)[C@@H](C(=C)C)C(=O)/C=C(/C)C(=O)C1 | 16.1 µM | 42 µM | 34.9 µM | > 100 µM | 24.7 µM | 68.4 µM | 45.2 µM | > 100 µM | 22.6 µM | 57.8 µM | 38.8 µM | > 100 µM | 36.9 µM | > 100 µM | 23.8 µM | 71.5 µM | 25.4 µM | 60.9 µM | – | –
2 | CCOC(=O)C1=C(C)NC2SC(=O)/C(=C\c3ccccc3)N2C1c1ccccc1 (centres undefined) | 67.5 µM | > 100 µM | > 100 µM | > 100 µM | > 100 µM | > 100 µM | > 100 µM | > 100 µM | > 100 µM | > 100 µM | > 100 µM | > 100 µM | > 100 µM | > 100 µM | – | – | > 100 µM | > 100 µM | – | –
3 | COc1cc(C2CC(c3cc(C)ccc3C)=NN2c2ccc(S(=O)(=O)NC(=O)NCc3ccccc3)cc2)cc(OC)c1OC (centres undefined) | 3.21 µM | > 100 µM | 6.05 µM | 30.8 µM | 3.62 µM | > 100 µM | 2.96 µM | 13.3 µM | 2.42 µM | 5.4 µM | 2.27 µM | 5.25 µM | 3.31 µM | 14.4 µM | 3.48 µM | 9.61 µM | 3.17 µM | 19.9 µM | – | –
4 | CC1=C(c2cc(C(=O)Nc3ccc(Cl)c(Cl)c3)nc(N)n2)Sc2ccccc2N1 | – | > 100 µM | – | – | – | > 100 µM | – | – | – | > 100 µM | – | – | – | > 100 µM | – | > 100 µM | – | > 100 µM | > 100 | –
5 | CC[O-].Cc1ccc2cccc([O-])c2n1.Cc1ccc2cccc([O-])c2n1.Cc1ccc2cccc([O-])c2n1.[Ti+4] | 33.8 µM | > 100 µM | – | – | 29.6 µM | > 61.1 µM | – | – | 34.1 µM | > 100 µM | – | – | 11.1 µM | 20.6 µM | > 46 µM | > 66.3 µM | > 86.6 µM | > 100 µM | – | –
6 | CNc1ccc(-c2cc(=O)oc3ccc(Cl)cc23)cc1 | 0.044 µM | 5.23 µM | 0.183 µM and 0.155 µM | – | 0.0477 µM and 0.0437 µM | > 100 µM | 1.07 µM and 0.424 µM | > 100 µM | 0.0342 µM | 0.27 µM | – | – | 0.137 µM and 0.0856 µM | > 100 µM | – | – | – | > 100 µM | – | 0.0463
7 | C=C1Oc2nc3ccccc3c(=O)n2C1(C)C | – | > 100 µM | – | – | – | > 100 µM | – | – | – | > 10 µM | – | – | – | > 100 µM | – | > 100 µM | – | > 100 µM | – | –
8 | O=C(O)CCC1(Br)CCCCC(Br)C1=O (centres undefined) | – | > 100 µM | – | – | – | > 100 µM | – | – | – | > 100 µM | – | – | – | > 100 µM | – | > 100 µM | – | > 100 µM | – | –
9 | CN(c1ccccc1)C1C(=O)N(c2ccccc2)C1/C=C/c1ccccc1 (centres undefined) | – | > 100 µM | – | – | – | > 100 µM | – | – | – | > 100 µM | – | – | – | > 100 µM | – | > 100 µM | – | > 100 µM | > 100 | –
10 | CNC(C)C(=O)N[C@H](C(=O)N1CCC[C@@H]1CN(CCc1ccccc1)C(=O)C(F)(F)F)[C@H](C)OCC#CC#CCO[C@H](C)[C@H](NC(=O)[C@H](C)NC)C(=O)N1CCC[C@H]1CN(CCc1ccccc1)C(=O)C(F)(F)F (some centres undefined) | 1.43 µM | 2.78 µM | 1.56 µM | 3.05 µM | 1.63 µM | 3.16 µM | < 0.01 µM | < 0.01 µM | 1.42 µM | 2.86 µM | 1.63 µM | 3.46 µM | 1.72 µM | 3.27 µM | 0.0115 µM | 0.716 µM | 2.39 µM | 5.51 µM | – | –
11 | NCC1OC(OC2C(CO)OC(OC3C(O)C(N)CC(N)C3OC3OC(CO)C(O)C(O)C3N)C2O)C(N)C(O)C1O (centres undefined) | > 50 µg/mL | > 50 µg/mL | – | – | > 50 µg/mL | > 50 µg/mL | > 50 µg/mL | > 50 µg/mL | > 50 µg/mL | > 50 µg/mL | > 50 µg/mL | > 50 µg/mL | > 50 µg/mL | > 50 µg/mL | – | – | > 50 µg/mL | > 50 µg/mL | – | –
12 | CC[C@H](C)n1cc(C)c2c(C(=O)NCc3c(C)cc(C)[nH]c3=O)cc(-c3ccc(N4CCNCC4)nc3)cc21 | 10.1 µM and 9.6 µM | 21.6 µM and 22.1 µM | 14.7 µM and 15.1 µM | 27.9 µM and 28.7 µM | 10.1 µM and 8.21 µM | 21.8 µM and 22.1 µM | 6.38 µM and 7 µM | 19.5 µM and 20.5 µM | 14.2 µM | 27.4 µM and 28.2 µM | 10 µM and 5.12 µM | 21.6 µM and 16.3 µM | 16.8 µM and 16.3 µM | 32.4 µM and 32.1 µM | 8 µM and 2.51 µM | 21.5 µM and 6.78 µM | 16.1 µM and 15.4 µM | 29.6 µM and 28.8 µM | – | –
13 | O=C(O)C#CCO | – | > 100 µM | – | – | – | > 100 µM | – | – | – | > 100 µM | – | – | – | > 100 µM | – | > 100 µM | – | > 100 µM | – | –
14 | COC(=O)C1CCC(Nc2cccc(C(F)(F)F)c2)=N1 (centres undefined) | – | > 100 µM | – | – | – | > 100 µM | – | – | – | > 100 µM | – | – | – | > 100 µM | – | > 100 µM | – | > 100 µM | – | –
15 | O=c1c2ccccc2c(=O)c2c1cc(Cl)c1[nH]c3c([nH]c12)c(Cl)cc1c(=O)c2ccccc2c(=O)c13 | – | > 100 µM | – | – | – | > 100 µM | – | – | – | > 100 µM | – | – | – | > 100 µM | – | > 100 µM | – | > 100 µM | – | –
16 | O=C(O)C1c2ccccc2C(C(=O)O)c2ccccc21 (centres undefined) | – | > 100 µM | – | – | – | > 100 µM | – | – | – | – | – | – | – | > 100 µM | – | > 100 µM | – | > 100 µM | > 100 | –
17 | Cc1cc(C(=O)N2CCN(Cc3ccccc3)CC2)c(C)o1 | – | > 100 µM | – | – | – | > 100 µM | – | – | – | > 100 µM | – | – | – | > 100 µM | – | – | – | > 100 µM | > 100 | –
18 | COc1cccc(NC(=O)CC(=O)N2NC(C)C(N=Nc3cccc(C(=O)O)c3)C2=O)c1 (centres undefined) | – | > 100 µM | – | – | – | > 100 µM | – | – | – | > 100 µM | – | – | – | > 100 µM | – | > 100 µM | – | > 100 µM | > 100 | –
19 | CCC[CH2][Sn]([CH2]CCC)([O]C(=O)c1nccnc1N)[O]C(=O)c1nccnc1N | 1.1 µM | 2.3 µM | – | – | 0.319 µM | 1.26 µM | – | – | 1.21 µM | 2.45 µM | – | – | 3.52 µM | 12.7 µM | 0.57 µM | 2.04 µM | 0.226 µM | 1.77 µM | 2.35 | 0.294
20 | Clc1ccc(OC2CCO2)cc1Cl (centres undefined) | – | > 100 µM | – | – | – | 33.6 µM | – | – | – | > 100 µM | – | – | – | > 100 µM | – | > 100 µM | – | > 100 µM | – | –
21 | C/C(=N/NC(=O)C(N)=O)C(CC(C(=O)Nc1ccccc1C)/C(C)=N\NC(=O)C(N)=O)C(=O)Nc1ccccc1C (centres undefined) | – | – | – | – | – | > 100 µM | – | – | – | > 100 µM | – | – | – | > 100 µM | – | > 100 µM | – | > 100 µM | – | –
22 | Cc1cc(NS(=O)(=O)c2ccc(NC(=O)c3cccc4c(Nc5ccc(S(=O)(=O)Nc6cc(C)on6)cc5)c5ccccc5nc34)cc2)no1 | – | – | – | – | – | > 100 µM | – | – | – | > 100 µM | – | – | – | > 100 µM | – | > 100 µM | – | > 100 µM | – | –
23 | N#CCC(=O)N/N=C1\C(=O)N(c2ccc(Cl)cc2)C(=O)C(=O)C1c1nc2ccccc2o1 (centres undefined) | – | > 100 µM | – | – | – | > 100 µM | – | – | – | > 100 µM | – | – | – | > 100 µM | – | > 100 µM | – | > 100 µM | > 100 | –
24 | CC(=O)OC1C(CCl)OC(N=[N+]=[N-])C(OC(C)=O)C1OC(C)=O (centres undefined) | – | > 100 µM | – | – | – | > 100 µM | – | – | – | > 100 µM | – | – | – | > 100 µM | – | > 100 µM | – | > 100 µM | – | –
25 | CC(C)(C)[Si](C)(C)O/N=C\c1ccc(O[Si](C)(C)C(C)(C)C)cc1 | – | 63 µM | – | – | – | > 100 µM | – | – | – | 50.9 µM | – | – | – | > 100 µM | – | > 100 µM | – | > 100 µM | – | –
26 | CN1c2ccccc2S(=O)(=O)n2c(COc3ccc(Cl)cc3)nnc21 | – | > 100 µM | – | > 100 µM | – | > 100 µM | – | > 100 µM | – | > 100 µM | – | > 100 µM | – | > 100 µM | – | – | – | > 100 µM | – | –
27 | C[C@H]1CC(=O)C2=CCCC3(SCCCS3)[C@@H]2[C@H]1CO | – | > 100 µM | – | – | – | > 100 µM | – | – | – | > 100 µM | – | – | – | > 100 µM | – | > 100 µM | – | > 100 µM | > 100 | –
28 | COc1cc2cc[n+]3c4cc(OC)c(OC)cc4c(C)cc3c2cc1OC | – | > 100 µM | – | – | – | > 100 µM | – | – | – | > 100 µM | – | – | – | > 100 µM | – | > 100 µM | – | > 100 µM | > 100 | –
29 | Cc1cc(C)cc(Sc2c([N+](=O)[O-])ncn2C)c1 | – | 32.4 µM | – | – | – | 41.4 µM | – | – | – | 34.3 µM | – | – | – | > 100 µM | – | 25.3 µM | – | 89.2 µM | 41 | –
30 | COc1ccc(Cc2cnc(NC(=O)c3sc4ccccc4c3Cl)s2)cc1 | 0.408 µM | > 100 µM | 0.37 µM | > 100 µM | 0.409 µM | > 100 µM | 0.585 µM | > 100 µM | – | – | – | – | 0.571 µM | > 100 µM | 0.81 µM | > 100 µM | 0.487 µM | > 100 µM | > 100 | 0.31
